Literature values as cited in paper PMC3532212 (PLoS ONE, 2012).

What was measured:
[1] = test system: anesthetized guinea pigs; parameters: method as in PMID 15642767; settings: i.v. bolus, highest tested dose 0.03 mg/kg/d; cited from earlier work
[2] = test system: disease-relevant model; parameters: method as in PMID 15642767; settings: cited from earlier work
[3] = test system: Wistar rats; parameters: method as in PMID 17006328; settings: cited from earlier work
[4] = test system: S1P1 receptor; parameters: method as in PMID 15975516; settings: cited from earlier work
[5] = test system: mice; parameters: method as in PMID 14747617; settings: wild type mice; cited from earlier work
[6] = test system: FTY720-induced bradycardia; parameters: method as in PMID 20097776; settings: in vivo; cited from earlier work

NC(CO)(CO)CCc1ccc(Sc2cccc(OCc3ccccc3)c2)cc1Cl [KRP-203]
effect on heart rate [1]: no effect on heart rate
efficacious dose in a disease-relevant model [2]: 0.1 to 1.0 mg/kg/day
effect on heart rate ([3]; 0.03 mg/kg): no effect on heart rate
acute bradycardia, heart rate below baseline ([3]; 0.1 and 0.3 mg/kg): ~150 beats/min

FC(F)(F)c1cccc(-c2noc(-c3cc(-c4ccccc4)c(C(F)(F)F)s3)n2)c1 [SEW2871]
S1P1 receptor internalization [4]: elicit S1P1 receptor internalization

CCCCCCCCCCCCC/C=C/[C@@H](O)[C@@H](N)COP(=O)(O)O [S1P, Sphingosine-1-phospate]
effect on heart rate [5]: reductions in heart rate

CC(C)(C)C(=O)C(=Nc1ccc(Cl)cc1)NNc1ccc(Cl)cc1 [TY-52156]
effect on FTY720-induced bradycardia [6]: partially inhibit
